According to article PMC3412939 (Biochimica et biophysica acta, 2012):

What was measured:
[1] = Blue shift of tryptophan emission spectrum on membrane binding; format: physicochemical; settings: PC/PG SUV, relative to spectrum without lipid; excitation 280 nm; mean ± SE
[2] = Acrylamide quenching of tryptophan fluorescence; format: physicochemical; settings: 100 μM PC/PG (7:3) SUV, cholesterol-free

Blue shift of tryptophan emission at saturation [1]: 13 ± 2 nm
Ratio of quenching constants KSV(lipid)/KSV(no lipid) [2]: 0.41 ± 0.03
Substance: wRVIRLVRVFRIFKLSRH [W-S4]
